Measured values published in US11638707B2, “Substituted amino triazoles useful as chitinase inhibitors” (Molecure S.A., priority 2019, dated 2023).
Where a name gives a salt, the structure may show the parent alone.

Columns and labels:
hERG channel = hERG channel (Homo sapiens (Human), UniProt Q12809); experiment: Human ERG channel binding assay (fluorescence polarization); conditions: tracer displacement, 4 h at room temperature
Procedure: Human ERG Channel Binding Assay
Fluorescence polarization assay based on the principle of fluorescence polarization where a red-shifted fluorescent tracer is displaced from the hERG channel by compounds that bind to the channel was used to establish the binding of the compounds to hERG channel. […] Briefly, the compounds in serial dilutions were incubated with a membrane fraction containing hERG channel protein and a high-affinity red fluorescent hERG channel ligand in black 384-well plate. […] The IC50 values were calculated using GraphPad Prism.

recombinant human AMCase = recombinant human AMCase (Homo sapiens (Human), UniProt Q9BZP6); experiment: Human AMCase activity assay; type: biochemical; conditions: citrate buffer pH 5.2, 37° C., 60 minutes, read-out: hAMCase, IC50
Sequence of recombinant human AMCase (Q9BZP6 22-476): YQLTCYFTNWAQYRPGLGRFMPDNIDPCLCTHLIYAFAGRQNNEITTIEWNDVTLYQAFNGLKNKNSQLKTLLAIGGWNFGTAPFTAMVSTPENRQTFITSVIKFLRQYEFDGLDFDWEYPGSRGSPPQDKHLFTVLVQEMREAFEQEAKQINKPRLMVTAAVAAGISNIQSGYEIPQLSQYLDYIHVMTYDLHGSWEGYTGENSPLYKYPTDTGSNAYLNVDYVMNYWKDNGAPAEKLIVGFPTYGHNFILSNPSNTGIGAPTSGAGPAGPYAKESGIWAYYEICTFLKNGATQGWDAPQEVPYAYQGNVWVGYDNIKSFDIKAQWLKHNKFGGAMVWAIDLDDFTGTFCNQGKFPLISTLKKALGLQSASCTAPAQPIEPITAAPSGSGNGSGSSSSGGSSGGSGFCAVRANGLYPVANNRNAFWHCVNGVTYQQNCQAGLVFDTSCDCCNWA
Procedure: (§1) The assay was run in the 96-well plate format, each reaction in the total volume of 100 μL. 4-Methylumbelliferyl B-D-N,N′-diacetylchitobioside hydrate was used as a substrate for the enzyme. Upon hydrolysis by AMCase, the substrate releases 4-methylumbelliferyl (4MU) that, when ionized in basic pH, emits fluorescence at 460 nm. Briefly, 40 μL of a substrate was added to each well, followed by 10 μL of compound dilution and 50 μL of hAMCase recombinant enzyme solution. The reaction was carried out in citrate buffer, pH 5.2, in the dark, at 37° C. for 60 minutes with shaking. […] The IC50 values were calculated using GraphPad Prism.

recombinant human CHIT1 = recombinant human CHIT1 (Homo sapiens (Human), UniProt Q13231); experiment: Human CHIT1 activity assay; type: biochemical; conditions: recombinant human CHIT1, citrate buffer pH 5.2, 37° C., 60 minutes; read-out: hCHIT1, IC50
Sequence of recombinant human CHIT1 (Q13231 22-466): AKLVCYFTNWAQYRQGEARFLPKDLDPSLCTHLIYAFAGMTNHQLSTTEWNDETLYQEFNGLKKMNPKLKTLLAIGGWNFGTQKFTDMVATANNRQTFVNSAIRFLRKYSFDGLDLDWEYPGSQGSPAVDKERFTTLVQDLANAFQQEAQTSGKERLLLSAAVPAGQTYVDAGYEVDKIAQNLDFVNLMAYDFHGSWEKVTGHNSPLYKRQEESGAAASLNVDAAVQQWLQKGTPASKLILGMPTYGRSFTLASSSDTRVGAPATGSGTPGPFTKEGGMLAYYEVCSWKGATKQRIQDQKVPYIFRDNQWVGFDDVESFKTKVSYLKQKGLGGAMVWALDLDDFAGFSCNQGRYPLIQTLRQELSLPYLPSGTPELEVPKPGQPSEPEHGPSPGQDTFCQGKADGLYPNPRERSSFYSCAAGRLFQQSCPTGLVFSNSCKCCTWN
Procedure: as §1, with “4-methylumbelliferyl β-D-N,N′,N″-triacetylchitotriose” for “4-Methylumbelliferyl B-D-N,N′-diacetylchitobioside hydrate”, “CHIT1,” for “AMCase,”, “CHIT1” for “hAMCase”

Sequence of hERG channel (Q12809 whole entry): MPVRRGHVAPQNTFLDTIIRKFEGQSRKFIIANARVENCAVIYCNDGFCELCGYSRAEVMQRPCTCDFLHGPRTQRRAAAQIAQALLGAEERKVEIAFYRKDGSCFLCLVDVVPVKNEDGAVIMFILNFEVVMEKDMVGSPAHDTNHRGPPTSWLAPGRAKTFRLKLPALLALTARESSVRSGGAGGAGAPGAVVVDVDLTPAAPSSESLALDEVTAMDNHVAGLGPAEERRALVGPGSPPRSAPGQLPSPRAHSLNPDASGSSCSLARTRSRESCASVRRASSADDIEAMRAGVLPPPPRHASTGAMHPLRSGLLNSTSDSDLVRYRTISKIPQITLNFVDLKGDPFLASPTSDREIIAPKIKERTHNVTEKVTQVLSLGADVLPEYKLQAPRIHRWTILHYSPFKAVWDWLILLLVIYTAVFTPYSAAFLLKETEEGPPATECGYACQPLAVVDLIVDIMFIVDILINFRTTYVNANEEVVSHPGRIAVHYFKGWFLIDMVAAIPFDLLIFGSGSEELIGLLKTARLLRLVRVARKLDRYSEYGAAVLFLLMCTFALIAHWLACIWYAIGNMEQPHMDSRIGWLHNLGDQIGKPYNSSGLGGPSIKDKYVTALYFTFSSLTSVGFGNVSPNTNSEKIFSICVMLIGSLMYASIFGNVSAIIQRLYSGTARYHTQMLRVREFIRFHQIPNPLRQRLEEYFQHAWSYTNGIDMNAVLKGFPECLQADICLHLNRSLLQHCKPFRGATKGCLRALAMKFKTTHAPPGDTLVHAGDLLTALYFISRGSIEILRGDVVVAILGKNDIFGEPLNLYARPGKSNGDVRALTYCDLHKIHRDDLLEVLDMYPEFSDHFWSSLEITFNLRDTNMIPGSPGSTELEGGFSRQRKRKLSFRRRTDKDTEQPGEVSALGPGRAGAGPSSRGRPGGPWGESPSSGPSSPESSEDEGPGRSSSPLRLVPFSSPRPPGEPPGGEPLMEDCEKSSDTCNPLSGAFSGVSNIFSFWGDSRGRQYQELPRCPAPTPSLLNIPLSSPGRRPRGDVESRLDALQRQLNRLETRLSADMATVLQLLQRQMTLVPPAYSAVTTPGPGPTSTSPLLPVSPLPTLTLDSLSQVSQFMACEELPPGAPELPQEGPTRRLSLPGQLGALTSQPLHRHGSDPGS

## CC(F)[C@H]1CN(C2CCN(c3nnc(N)[nH]3)CC2)[C@@H](Cc2ccc(Cl)cc2)CO1 (relative stereo) [Example 20, 5-(4-((2R,5S)-5-(4-chlorobenzyl)-2-(1-fluoroethyl)morpholino)piperidin-1-yl)-4H-1,2,4-triazol-3-amine 2,2,2-trifluoroacetate]
hERG channel; Table 1
  IC50: > 100 µM
Recombinant human AMCase
  IC50: < 0.1 µM
Recombinant human CHIT1
  IC50: < 0.1 µM

## CC(C)(F)[C@H]1CN(C2CCN(c3nnc(N)[nH]3)CC2)[C@@H](Cc2ccc(Cl)cc2)CO1 [Example 1, 5-(4-((2R,5S)-5-(4-chlorobenzyl)-2-(2-fluoropropan-2-yl)morpholino)piperidin-1-yl)-4H-1,2,4-triazol-3-amine 2,2,2-trifluoroacetate]
hERG channel; Table 1
  IC50: 25 to 100 µM
Recombinant human AMCase
  IC50: < 0.1 µM
Recombinant human CHIT1
  IC50: < 0.1 µM

## Nc1nnc(N2CCC(N3C[C@H](C(F)F)OC[C@@H]3Cc3ccc(Cl)cc3)CC2)[nH]1 [Example 2, 5-(4-((2R,5S)-5-(4-chlorobenzyl)-2-(difluoromethyl)morpholino)piperidin-1-yl)-4H-1,2,4-triazol-3-amine 2,2,2-trifluoroacetate]
hERG channel; Table 1
  IC50: > 100 µM
Recombinant human AMCase
  IC50: < 0.1 µM
Recombinant human CHIT1
  IC50: < 0.1 µM

## C[C@@H]([C@H]1CN(C2CCN(c3nnc(N)[nH]3)CC2)[C@@H](Cc2ccc(Cl)cc2)CO1)n1cccn1 [Example 18, 5-(4-((2R,5S)-2-((S)-1-(1H-pyrazol-1-yl)ethyl)-5-(4-chlorobenzyl)morpholino)-piperidin-1-yl)-4H-1,2,4-triazol-3-amine 2,2,2-trifluoroacetate]
Recombinant human AMCase
  IC50: < 0.1 µM
Recombinant human CHIT1
  IC50: < 0.1 µM

## C[C@H]([C@H]1CN(C2CCN(c3nnc(N)[nH]3)CC2)[C@@H](Cc2ccc(Cl)cc2)CO1)n1cccn1 [Example 19, 5-(4-((2R,5S)-2-((R)-1-(1H-pyrazol-1-yl)ethyl)-5-(4-chlorobenzyl)morpholino)-piperidin-1-yl)-4H-1,2,4-triazol-3-amine 2,2,2-trifluoroacetate]
Recombinant human AMCase
  IC50: < 0.1 µM
Recombinant human CHIT1
  IC50: < 0.1 µM

## Nc1nnc(N2CCC(N3C[C@H](CN4CCCCC4=O)OC[C@@H]3Cc3ccc(Cl)cc3)CC2)[nH]1 [Example 35, 1-(((2R,5S)-4-(1-(5-amino-4H-1,2,4-triazol-3-yl)piperidin-4-yl)-5-(4-chlorobenzyl)-morpholin-2-yl)methyl)piperidin-2-one 2,2,2-trifluoroacetate]
Recombinant human AMCase
  IC50: < 0.1 µM
Recombinant human CHIT1
  IC50: < 0.1 µM

## Nc1nnc(N2CCC(N3C[C@H](CN4CCC(F)(F)CC4)OC[C@@H]3Cc3ccc(Cl)cc3)CC2)[nH]1 [Example 38, 5-(4-((2S,5S)-5-(4-chlorobenzyl)-2-((4,4-difluoropiperidin-1-yl)methyl)-morpholino)piperidin-1-yl)-4H-1,2,4-triazol-3-amine 2,2,2-trifluoroacetate]
Recombinant human AMCase
  IC50: < 0.1 µM
Recombinant human CHIT1
  IC50: < 0.1 µM

## Nc1nnc(N2CCC(N3C[C@H](COC(F)F)OC[C@@H]3Cc3ccc(Cl)cc3)CC2)[nH]1 [Example 40, 5-(4-((2R,5S)-5-(4-chlorobenzyl)-2-((difluoromethoxy)methyl)morpholino)-piperidin-1-yl)-4H-1,2,4-triazol-3-amine 2,2,2-trifluoroacetate]
Recombinant human AMCase
  IC50: < 0.1 µM
Recombinant human CHIT1
  IC50: < 0.1 µM

## CC(F)(F)[C@H]1CN(C2CCN(c3nnc(N)[nH]3)CC2)[C@@H](Cc2ccc(Cl)cc2)CO1 [Example 42, 5-(4-((2R,5S)-5-(4-chlorobenzyl)-2-(1,1-difluoroethyl)morpholino)piperidin-1-yl)-4H-1,2,4-triazol-3-amine dihydrochloride]
Recombinant human AMCase
  IC50: < 0.1 µM
Recombinant human CHIT1
  IC50: < 0.1 µM

## Nc1nnc(N2CCC(N3C[C@H](COCC(F)F)OC[C@@H]3Cc3ccc(Cl)cc3)CC2)[nH]1 [Example 43, 5-(4-((2R,5S)-5-(4-chlorobenzyl)-2-((2,2-difluoroethoxy)methyl)morpholino)-piperidin-1-yl)-4H-1,2,4-triazol-3-amine 2,2,2-trifluoroacetate]
Recombinant human AMCase
  IC50: < 0.1 µM
Recombinant human CHIT1
  IC50: < 0.1 µM

## Nc1nnc(N2CCC(N3CC(F)(F)C[C@@H]3Cc3ccc(Cl)cc3)CC2)[nH]1 [Example 56, (S)-5-(4-(2-(4-chlorobenzyl)-4,4-difluoropyrrolidin-1-yl)piperidin-1-yl)-4H-1,2,4-triazol-3-amine dihydrochloride]
Recombinant human CHIT1
  IC50: < 0.1 µM

## CC1(O)CCN(C2CCN(c3nnc(N)[nH]3)CC2)[C@@H](Cc2ccc(Cl)cc2)C1 (stereo partly drawn) [Example 59, (2S)-1′-(5-amino-4H-1,2,4-triazol-3-yl)-2-(4-chlorobenzyl)-4-methyl-[1,4′-bipiperidin]-4-ol 2,2,2-trifluoroacetate]
hERG channel; Table 1
  IC50: 25 to 100 µM
Recombinant human CHIT1
  IC50: 1 to 10 µM

## Nc1nnc(N2CCC(N3C[C@H](O)CC[C@@H]3Cc3ccc(Cl)cc3)CC2)[nH]1 [Example 70, (3R,6R)-1′-(5-amino-4H-1,2,4-triazol-3-yl)-6-(4-chlorobenzyl)-[1,4′-bipiperidin]-3-ol 2,2,2-trifluoroacetate]
Recombinant human AMCase
  IC50: < 0.1 µM
Recombinant human CHIT1
  IC50: < 0.1 µM

## CO[C@@H]1CC[C@H](Cc2ccc(Cl)cc2)N(C2CCN(c3nnc(N)[nH]3)CC2)C1 [Example 71, 5-((2R,5R)-2-(4-chlorobenzyl)-5-methoxy-[1,4′-bipiperidin]-1′-yl)-4H-1,2,4-triazol-3-amine 2,2,2-trifluoroacetate]
hERG channel; Table 1
  IC50: 25 to 100 µM
Recombinant human CHIT1
  IC50: 0.1 to 1 µM

## Nc1nnc(N2CCC(N3CC4CC4C[C@@H]3Cc3ccc(Cl)cc3)CC2)[nH]1 (stereo partly drawn) [Example 72, 5-(4-((4R)-4-(4-chlorobenzyl)-3-azabicyclo[4.1.0]heptan-3-yl)piperidin-1-yl)-4H-1,2,4-triazol-3-amine 2,2,2-trifluoroacetate]
Recombinant human AMCase
  IC50: < 0.1 µM
Recombinant human CHIT1
  IC50: 0.1 to 1 µM

## Nc1nnc(N2CCC(N3Cc4cncn4C[C@@H]3Cc3ccc(C(F)(F)F)cc3)CC2)[nH]1 [Example 77, (S)-5-(4-(6-(4-(trifluoromethyl)benzyl)-5,6-dihydroimidazo[1,5-a]pyrazin-7(8H)-yl)piperidin-1-yl)-4H-1,2,4-triazol-3-amine 2,2,2-trifluoroacetate]
Recombinant human CHIT1
  IC50: 1 to 10 µM

## Nc1nnc(N2CCC(N3CCOC[C@@H]3Cc3ccc(Cl)cc3)CC2)[nH]1 [Example C1, reference compound]
hERG channel; Table 2, comparative examples
  IC50: 10 to 25 µM

## CC(C)C[C@H]1CN(C2CCN(c3nnc(N)[nH]3)CC2)[C@@H](Cc2ccc(Cl)cc2)CO1 [Example C2, reference compound]
hERG channel; Table 2, comparative examples
  IC50: 1 to 10 µM

## COC(C)(C)[C@H]1CN(C2CCN(c3nnc(N)[nH]3)CC2)[C@@H](Cc2ccc(Cl)cc2)CO1 [Example C3, reference compound]
hERG channel; Table 2, comparative examples
  IC50: 10 to 25 µM

## Nc1nnc(N2CCC(N3CCCC[C@@H]3Cc3ccc(Cl)cc3)CC2)[nH]1 [Example C4, reference compound]
hERG channel; Table 2, comparative examples
  IC50: 1 to 10 µM

## CO[C@H]1CN(C2CCN(c3nnc(N)[nH]3)CC2)[C@H]1Cc1ccc(Cl)cc1 [Example C6, reference compound]
hERG channel; Table 2, comparative examples
  IC50: < 1 µM

## Nc1nnc(N2CCC(N3CCC[C@@H]3Cc3ccc(Cl)cc3)CC2)[nH]1 [Example C7, reference compound]
hERG channel; Table 2, comparative examples
  IC50: 1 to 10 µM

## C[C@H]1CN(C2CCN(c3nnc(N)[nH]3)CC2)[C@@H](Cc2ccc(Cl)cc2)CN1C [Example C8, reference compound]
hERG channel; Table 2, comparative examples
  IC50: 1 to 10 µM

## CC(C)CN1CCN(C2CCN(c3nnc(N)[nH]3)CC2)[C@@H](Cc2ccc(Cl)cc2)C1 [Example C9, reference compound]
hERG channel; Table 2, comparative examples
  IC50: 1 to 10 µM

## CN1C[C@H](Cc2ccc(Cl)cc2)N(C2CCN(c3nnc(N)[nH]3)CC2)C[C@@H]1Cc1ccc(Cl)cc1 [Example C10, reference compound]
hERG channel; Table 2, comparative examples
  IC50: < 1 µM

## CN1C[C@H](Cc2ccc(Cl)cc2)N(C2CCN(c3nnc(N)[nH]3)CC2)C[C@@H]1CC1CCCCC1 [Example C11, reference compound]
hERG channel; Table 2, comparative examples
  IC50: < 1 µM

## CC(C)C[C@H]1CN(C2CCN(c3nnc(N)[nH]3)CC2)[C@@H](Cc2ccc(Cl)cc2)CN1C [Example C12, reference compound]
hERG channel; Table 2, comparative examples
  IC50: < 1 µM

## Nc1nnc(N2CCC(N3C[C@@H](O)C[C@@H]3Cc3ccc(Cl)cc3)CC2)[nH]1 [Example C14, reference compound]
hERG channel; Table 2, comparative examples
  IC50: 10 to 25 µM

## Nc1nnc(N2CCC(N3C[C@@H]4CCCN4C[C@@H]3Cc3ccc(Cl)cc3)CC2)[nH]1 [Example C15, reference compound]
hERG channel; Table 2, comparative examples
  IC50: 1 to 10 µM

## CN1C[C@H](Cc2ccc(Cl)cc2)N(C2CCN(c3nnc(N)[nH]3)CC2)Cc2ccccc21 [Example C17, reference compound]
hERG channel; Table 2, comparative examples
  IC50: 1 to 10 µM

## CN1C[C@H](Cc2ccc(Cl)cc2)N(C2CCN(c3nnc(N)[nH]3)CC2)Cc2cc(Cl)ccc21 [Example C18, reference compound]
hERG channel; Table 2, comparative examples
  IC50: < 1 µM

## Nc1nnc(N2CCC(N3Cc4cc(Cl)ccc4OC[C@@H]3Cc3ccc(Cl)cc3)CC2)[nH]1 [Example C20, reference compound]
hERG channel; Table 2, comparative examples
  IC50: 1 to 10 µM

## Nc1nnc(N2CCC(N3Cc4cc(Cl)cc(Cl)c4OC[C@@H]3Cc3ccc(Cl)cc3)CC2)[nH]1 [Example C21, reference compound]
hERG channel; Table 2, comparative examples
  IC50: 1 to 10 µM
